Assay results as given in ChEMBL document CHEMBL1140963, “Naphthoquinoidal [1,2,3]-triazole, a new structural moiety active against Trypanosoma cruzi” (Eur J Med Chem, 2008).

test system: Trypanosoma cruzi; assay: Antitrypanosomal activity against Trypanosoma cruzi Y trypomastigotes after 1 day; type: functional, organism-based; conditions: 24 h

Q: `CC(C)=CC1=C(O)C(=O)c2ccccc2C1=O` was tested. Which IC50 did it give?
A: 1280 µM

Q: Which IC50 does the source give for `CC1(C)OC2=C(C(=O)C(=O)c3ccccc32)C1n1cc(C2(O)CCCCC2)nn1` (centres undefined) here?
A: 57.8 µM

Q: With `CC1(C)OC2=C(C(=O)C(=O)c3ccccc32)C1n1cc(-c2ccccc2)nn1` (centres undefined) as the compound, how does the IC50 read?
A: 17.3 µM

Q: `CC(C)(O)c1cn(C2C3=C(OC2(C)C)c2ccccc2C(=O)C3=O)nn1` (centres undefined) was tested. Which IC50 did it give?
A: 152 µM

Q: With `CC1(C)OC2=C(C(=O)C(=O)c3ccccc32)C1n1cc(COC2CCCCO2)nn1` (centres undefined) as the compound, how does the IC50 read?
A: 257 µM

Q: Which IC50 does the source give for `CC1(C)OC2=C(C(=O)C(=O)c3ccccc32)C1N=[N+]=[N-]` (centres undefined) here?
A: 50.2 µM

Q: How did the IC50 turn out when `CC1(C)OC2=C(C(=O)C(=O)c3ccccc32)C1n1cc(CO)nn1` (centres undefined) was run?
A: 348 µM

Q: `O=C(Cn1ccnc1[N+](=O)[O-])NCc1ccccc1` [BENZNIDAZOLE] was tested. Which IC50 did it give?
A: 104 µM

Q: How did the IC50 turn out when `CN(C)c1ccc(C(=C2C=CC(=[N+](C)C)C=C2)c2ccc(N(C)C)cc2)cc1` [GENTIAN VIOLET] was run?
A: 536 µM
